Reference: patent US20230057621A1 (priority 2019, published 2023)

Columns and labels:
Format in all cases: cell-based
pseudorabies virus [1] = tested on: pseudorabies virus
EB virus = tested on: EB virus
pseudorabies virus [2] = tested on: pseudorabies virus; remark: listed apart in the source

CC(C)(C)C(=O)OCOP(=O)(COCCn1cnc2c(N)ncnc21)OCOC(=O)C(C)(C)C [adefovir dipivoxil]
EC50 for the inhibition against pseudorabies virus proliferation (pseudorabies virus [1]): reaches nanomolar level
inhibitory effect on pseudorabies virus replication and proliferation (pseudorabies virus [1]): can significantly inhibit the replication and proliferation of pseudorabies virus
inhibitory activity against EB virus replication (EB virus): no inhibitory activity against EB virus
inhibition of the release of pseudorabies virus from cells (pseudorabies virus [2]): can significantly inhibit the release of pseudorabies virus from cells
